Like-named read-outs stand apart in the source and are kept apart here.
What was measured:
[1] = test system: TXA2 synthesis; assay: Inhibition of TXA2 synthesis (3H-arachidonic acid metabolism in washed human thrombocytes, TLC); format: cell-based; conditions: 10 min, 2 min pre-incubation, 10 min with 3H-arachidonic acid, 37° C., read-out: Minimal effective concentration for inhibition (MEC) of TXA2 synthesis
From the text: Arachidonic acid metabolism in human thrombocytes was investigated using tritium-labelled arachidonic acid. Thrombocytes metabolize arachidonic acid to TXA2 and HHT via the cyclooxygenase pathway and to 12-HETE via the lipoxygenase pathway, which can be separated by thin layer chromatography [cf Bailey, J.M. et al., Prostaglandins 13, 479-492, (1977)], Inhibitors of the individual enzymatic reactions alter the chromatographic distribution pattern in a characteristic manner.
Washed human thrombocytes from healthy donors who had taken no drug for 14 days were incubated for 2 minutes at 37° C. with the test substance and then incubated for a further 10 minutes at 37° C. with ^3 H-arachidonic acid. The suspension was acidified and extracted with ethyl acetate. The ethyl acetate was evaporated off under a nitrogen atmosphere and the residue was taken up in methanol/trichloromethane (1:1) and applied to TLC plastic sheets. Separation was performed using a trichloromethane/methanol/glacial acetic acid/water (80:8:1:0.8) mobile solvent mixture. The distribution of radioactivity was measured by means of a radioscanner (Table 1).

[2] = test system: isolated perfused guineapig hearts; assay: Coronary and circulatory activity on isolated perfused guineapig hearts; conditions: Cavia porcellus, 10^-6 g/ml, difference to starting pressure set as 100%
From the text: The coronary and circulatory activities were discovered using isolated perfused guineapig hearts.
For this, the hearts of 250 to 350 g guineapigs are used. The animals are killed by a blow to the head, the thorax is opened, and a metal cannula is tied into the exposed aorta. The heart is removed from the thorax with the lungs and is connected to the perfusion apparatus through an aortic cannula, with continuous perfusion. The lungs are removed at the lung roots. A Krebs Henseleit solution (1) (118.5 mmol/l of NaCl, 4.75 mmol/l of KCl, 1.19 mmol/l of KH2 PO4, 1.19 mmol/l of MgSO4, 25 mmol/l of NaHCO3, 0.013 mmol/l of Na2 EDTA), which contains 1.2 mmol/l of CaCl2, is used as the perfusion medium. 10 mmol/l of glucose are added as an energy-liberating substrate. Before the perfusion the solution is filtered until free of particles. The solution is gassed with Carbogen (95% O2, 5% CO2) in order to maintain a pH value of 7.4. The hearts are perfused at a constant flow rate (10 ml/min) at 32° C. using a peristaltic pump.
In order to measure the cardiac function, a latex balloon filled with liquid and connected through a column of liquid to a pressure gauge is introduced into the left ventricle through the left auricle, and the isovolumetric contractions are recorded on a high-speed recorder (Opie, L., J. Physiol. 180 (1965) 529-541). The perfusion pressure is recorded using a pressure gauge which is connected to the perfusion system upstream of the heart. Under these conditions a decrease in the perfusion pressure indicates coronary dilation, and a rise or fall in the amplitude of contraction of the left ventricle indicates an increase or decrease in cardiac contractility. The compounds according to the invention are infused into the perfusion medium at suitable dilutions just upstream of the isolated heart.
The following values show, as an example, the effect of the compounds according to the invention on isolated perfused guineapig hearts, expressed as the percentage difference to the starting pressure, set as equivalent to 100%.

[3] = test system: PGI2 synthesis; assay: Prostacyclin stimulation in whole blood (collagen-induced, 6-keto-PGF1α radioimmunologically); format: cell-based; conditions: read-out: Stimulation of PGI2 synthesis (MEC)
Procedure: The 1,4-dihydrophyridines to be used according to the invention additionally stimulate the synthesis of PGI2. PGI2 has vasodilating and thrombocyte aggregation inhibiting activity, in contrast with the vasoconstrictor and thrombocyte aggregation […] action of thromboxan.
In whole blood, collagen induces the formation of PGI2. The endoperoxides formed in the thrombocytes are probably converted into PGI2 by leucocytes. The stable end product of PGI2 conversion, 6-keto-PGF1 α, is determined radioimmunologically (Table 2).

[4] = decrease indicates coronary dilation, read-out: % alteration in perfusion pressure
[5] = read-out: % alteration in contractility

Compound | minimal effective concentration [1] [µg/mL] | inhibition at 1 µg/mL [2, 5] [%] | also measured
CC(=O)C1=C(C)NC(C)=C(C(=O)OCc2ccc(C3=NNC(=O)CC3)cc2)C1CCc1cccnc1 (stereo not shown) [Example 18] | 0.1 | – | –
COC(=O)C1=C(C)NC(C)=C(C(=O)OCc2ccc(C3=NNC(=O)CC3)cc2)C1c1ccccc1Cl (stereo not shown) [Example 13] | – | 78 | percent change at 1 µg/mL [2, 4]: 0%
CC1=C(C(=O)OCCCc2cccnc2)C(CCc2cccnc2)C(C(=O)OCc2ccc(C3=NNC(=O)CC3)cc2)=C(C)N1 (stereo not shown) [Example 11] | 0.1 | 23 | inhibition at 1 µg/mL [2, 4]: 36%
COC(=O)C1=C(C)NC(C)=C(C(=O)OCCc2ccc(C3=NNC(=O)CC3)cc2)C1CCc1cccnc1 (stereo not shown) [Example 21] | – | – | minimal effective concentration [3]: < 3 µg/mL
CC1=C(C(=O)OCCCc2cccnc2)C(CCc2cccnc2)C(C(=O)OCCc2ccc(C3=NNC(=O)CC3)cc2)=C(C)N1 (stereo not shown) [Example 22] | < 0.1 | – | minimal effective concentration [3]: < 1 µg/mL
CC1=C(C#N)C(CCc2cccnc2)C(C(=O)OCc2ccc(C3=NNC(=O)CC3)cc2)=C(C)N1 (stereo not shown) [Example 19] | 0.1 | – | –
COC(=O)C1=C(C)NC(C)=C(C(=O)OCc2ccc(C3=NNC(=O)CC3)cc2)C1CCc1cccnc1 (stereo not shown) [Example 16] | 0.1 | – | –
CCOC(=O)C1=C(C)NC(C)=C(C(=O)OCc2ccc(C3=NNC(=O)CC3)cc2)C1c1cccc([N+](=O)[O-])c1 (stereo not shown) [Example 7, Ethyl 4-(6-oxo-1,4,5,6-tetrahydropyridazin-3-yl)benzyl 1,4-dihydro-2,6-dimethyl-4-(3-nitrophenyl)-pyridine-3,5-dicarboxylate] | – | 60 | percent change at 1 µg/mL [2, 4]: 0%

Source: patent publication US4876255A, “Substituted 1,4-dihydropyridines for control of circulation and thromboses” (Bayer Aktiengesellschaft, priority 1987, dated 1989)
